15 compounds from patent US9975878B2, “Substituted triazine BMI-1 inhibitors” (PTC Therapeutics, Inc., priority 2013, dated 2018) can be followed below.

The term EC50 denotes the midpoint of the concentration-response curve.

For the experiment, the system named is Bmi-1 protein. The experiment can be described thus: Sandwich ELISA Assay: Bmi-1 protein level in HT-1080 cells treated with test compounds. In kind it is cell-based. The method, boiled down: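 HT-1080 cells exposed to compounds (final DMSO 0.5%) for 40-48 h at 37° C, 5% CO2, then lysed. Bmi-1 quantified by sandwich ELISA (mouse anti-Bmi-1 capture, rabbit anti-Bmi-1 detection, HRP anti-rabbit, TMB), read at OD450 with OD570 reference, against recombinant GST-Bmi-1 standard curve (0-8000 pg/mL).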
`CCc1nc2ccc(F)cc2n1-c1cnnc(Nc2ccc(C(F)(F)F)cc2)n1` [Cpd 125, 5-(2-ethyl-6-fluoro-1H-benzimidazol-1-yl)-N-[4-(trifluoromethyl)phenyl]-1,2,4-triazin-3-amine]: the 50% effective concentration (EC50) was in the range of 100 to 3000 nM.

Compound `Cc1nc2ccc(F)cc2n1-c1cnnc(Nc2ccc(C(F)(F)F)cc2)n1` [Cpd 126, 5-(6-fluoro-2-methyl-1H-benzimidazol-1-yl)-N-[4-(trifluoromethyl)phenyl]-1,2,4-triazin-3-amine] yielded an EC50 of 100 to 3000 nM.

`CCCc1nc2ccccc2n1-c1nc(N)nc(Nc2ccc(C(F)(F)F)cc2)n1` [Cpd 127, 6-(2-propyl-1H-benzimidazol-1-yl)-N-[4-(trifluoromethyl)phenyl]-1,3,5-triazine-2,4-diamine] displayed an EC50 of 100 to 3000 nM.

In the case of `CCc1nn2ccccc2c1-c1nc(N)nc(Nc2ccc(C(F)(F)F)cc2)n1` [Cpd 128, 6-(2-ethylpyrazolo[1,5-a]pyridin-3-yl)-N-[4-(trifluoromethyl)phenyl]-1,3,5-triazine-2,4-diamine], the EC50 is 100 to 3000 nM.

On to `CCc1nn2ccccc2c1-c1nc(N)nc(Nc2ccc(OC(F)F)cc2)n1` [Cpd 129, N-[4-(difluoromethoxy)phenyl]-6-(2-ethylpyrazolo[1,5-a]pyridin-3-yl)-1,3,5-triazine-2,4-diamine], for which the EC50 lay in the range of 100 to 3000 nM.

`Cc1nc2ccc(F)cc2n1-c1nncc(Nc2ccc(C(F)(F)F)cc2)n1` [Cpd 130, 3-(6-fluoro-2-methyl-1H-benzimidazol-1-yl)-N-[4-(trifluoromethyl)phenyl]-1,2,4-triazin-5-amine] yielded a half-maximal effective concentration (EC50) of 100 to 3000 nM.

`CCc1nc2ccc(F)cc2n1-c1nncc(Nc2ccc(C(F)(F)F)cc2)n1` [Cpd 131, 3-(2-ethyl-6-fluoro-1H-benzimidazol-1-yl)-N-[4-(trifluoromethyl)phenyl]-1,2,4-triazin-5-amine] displayed a 50% effective concentration (EC50) of 100 to 3000 nM.

`Fc1ccc2nc(C3CC3)n(-c3nncc(Nc4ccc(C(F)(F)F)cc4)n3)c2c1` [Cpd 132, 3-(2-cyclopropyl-6-fluoro-1H-benzimidazol-1-yl)-N-[4-(trifluoromethyl)phenyl]-1,2,4-triazin-5-amine] came in with an EC50 of 10 to 100 nM.

Take `FC(F)(F)c1ccc(Nc2nncc(-n3c(C4CC4)nc4ccccc43)n2)cc1` [Cpd 133, 5-(2-cyclopropyl-1H-benzimidazol-1-yl)-N-[4-(trifluoromethyl)phenyl]-1,2,4-triazin-3-amine]: the concentration giving a half-maximal response (EC50) is 10 to 100 nM.

Compound `Fc1ccc2nc(C3CC3)n(-c3cnnc(Nc4ccc(C(F)(F)F)cc4)n3)c2c1` [Cpd 134, 5-(2-cyclopropyl-6-fluoro-1H-benzimidazol-1-yl)-N-[4-(trifluoromethyl)phenyl]-1,2,4-triazin-3-amine] yielded an EC50 of 100 to 3000 nM.

As for `Cc1nc2ccccc2n1-c1nc(N)nc(Nc2ccc(N3CCOCC3)cc2)n1` [Cpd 135, 6-(2-methyl-1H-benzimidazol-1-yl)-N-[4-(morpholin-4-yl)phenyl]-1,3,5-triazine-2,4-diamine], the concentration giving a half-maximal response (EC50) lay in the range of 100 to 3000 nM.

In turn, `Cc1nc2ccc(F)cc2n1-c1cnnc(Nc2ccc(OC(F)F)cc2)n1` [Cpd 136, N-[4-(difluoromethoxy)phenyl]-5-(6-fluoro-2-methyl-1H-benzimidazol-1-yl)-1,2,4-triazin-3-amine] gave an EC50 of 10 to 100 nM.

As to `CCc1nc2ccc(F)cc2n1-c1cnnc(Nc2ccc(OC(F)F)cc2)n1` [Cpd 137, N-[4-(difluoromethoxy)phenyl]-5-(2-ethyl-6-fluoro-1H-benzimidazol-1-yl)-1,2,4-triazin-3-amine], the EC50 fell in the range of 100 to 3000 nM.

Consider `Fc1ccc2nc(C3CC3)n(-c3cnnc(Nc4ccc(OC(F)F)cc4)n3)c2c1` [Cpd 138, 5-(2-cyclopropyl-6-fluoro-1H-benzimidazol-1-yl)-N-[4-(difluoromethoxy)phenyl]-1,2,4-triazin-3-amine], for which the EC50 lay within 100 to 3000 nM.

Regarding `CCc1nc2ccccc2n1-c1nc(Nc2ccc(C(F)(F)F)cc2)c[n+]([O-])n1` [Cpd 139, 3-(2-ethyl-1H-benzimidazol-1-yl)-N-[4-(trifluoromethyl)phenyl]-1,2,4-triazin-5-amine 1-oxide], the concentration for a half-maximal effect (EC50) lay within 10 to 100 nM.
